From US20240382425A1 (BS BIOTECHNA SPOLKA Z OGRANICZONA ODPOWIEDZIALNOSCIA, priority 2021, published 2024)
In brackets after ≈: the same amount, converted by molar mass.

Legend:
[1] = Solubility of the deprotonated form of emetine in water; type: physicochemical
Experimental: The total volume of titrant utilised was 1.5 mL. The precipitate was centrifuged at 6000 RPM for 20 minutes and separated from the solution. […] The precipitate was dried in a vacuum dryer at 30° C., 100 mbar pressure for 5 h and used in the next synthetic steps.

[2] = tested on: MERS and SARS coronaviruses; details: lowest among over 290 drugs tested; cited from earlier work

Question: What does the source list for CC[C@H]1CN2CCc3cc(OC)c(OC)cc3[C@@H]2C[C@@H]1C[C@H]1NCCc2cc(OC)c(OC)cc21 [emetine]?
Answer: solubility [1]: 1790 µg/mL (≈ 3.72 mM); EC50 [2]: < 20 nM
